According to ChEMBL document CHEMBL5678809, “Preclinical characterization of GLPG0634, a selective inhibitor of JAK1, for the treatment of inflammatory diseases” (J Immunol, 2013):
The source made the active and inactive calls. The calls are words filed in the database; no cut-off is given here.

What was measured:
[1] = biological target: Proto-oncogene tyrosine-protein kinase Src (Homo sapiens) (UniProt P12931); assay: Inhibition of Src (unknown origin) (1 to 530 residues) at 1 uM relative to control
[2] = biological target: CDK7/Cyclin H/MNAT1 (Homo sapiens) (UniProt P51946+P50613+P51948); assay: Inhibition of CDK7/cyclinH/MAT1 (unknown origin) at 1 uM relative to control; assay type: protein-complex assay
[3] = biological target: Testis-specific serine/threonine-protein kinase 1 (Homo sapiens) (UniProt Q9BXA7); assay: Inhibition of TSSK1 (unknown origin) at 1 uM relative to control
[4] = biological target: Ribosomal protein S6 kinase alpha-3 (Homo sapiens) (UniProt P51812); assay: Inhibition of Rsk2 (unknown origin) at 1 uM relative to control
[5] = biological target: Serine/threonine-protein kinase Chk1 (Homo sapiens) (UniProt O14757); assay: Inhibition of CHK1 (unknown origin) at 1 uM relative to control
[6] = biological target: Interleukin-1 receptor-associated kinase 1 (Homo sapiens) (UniProt P51617); assay: Inhibition of IRAK1 (unknown origin) at 1 uM relative to control
[7] = biological target: Serine/threonine-protein kinase Sgk1 (Homo sapiens) (UniProt O00141); assay: Inhibition of SGK (unknown origin) at 1 uM relative to control
Mus musculus [8] = assay: Antiarthritic activity against collagen-induced arthritis DBA/1J mouse model assessed as reduction in infiltration of F4/80+ macrophage cells in paw at 50 mg/kg, po administered twice daily for 14 days by immunohistochemistry analysis; assay type: functional, organism-based; conditions: time 14.0 day
[9] = biological target: MAP kinase-interacting serine/threonine-protein kinase 2 (Homo sapiens, UniProt Q9HBH9); assay: Inhibition of MNK2 (unknown origin)
[10] = biological target: Ephrin type-B receptor 4 (Homo sapiens) (UniProt P54760); assay: Inhibition of EphB4 (unknown origin) at 1 uM relative to control
[11] = biological target: Rhodopsin kinase GRK7 (Homo sapiens) (UniProt Q8WTQ7); assay: Inhibition of GRK7 (unknown origin) at 1 uM relative to control
[12] = biological target: Death-associated protein kinase 3 (Homo sapiens) (UniProt O43293); assay: Inhibition of ZIPK (unknown origin) at 1 uM relative to control
[13] = biological target: Mitogen-activated protein kinase 12 (Homo sapiens, UniProt P53778); assay: Inhibition of MAPK12 (unknown origin)
[14] = biological target: Insulin receptor-related protein (Homo sapiens) (UniProt P14616); assay: Inhibition of IRR (unknown origin) at 1 uM relative to control
[15] = biological target: SRSF protein kinase 1 (Homo sapiens) (UniProt Q96SB4); assay: Inhibition of SRPK1 (unknown origin) at 1 uM relative to control
[16] = Tmax in Sprague-Dawley rat at 5 mg/kg, po measured upto 24 hrs by LC-MS analysis; assay type: ADME, organism-based; conditions: in vivo
[17] = biological target: Mitogen-activated protein kinase 11 (Homo sapiens) (UniProt Q15759); assay: Inhibition of SAPK2b (unknown origin) at 1 uM relative to control
Mus musculus [18] = assay: Antiarthritic activity against collagen-induced arthritis DBA/1J mouse model assessed as reduction in IP-10 level in serum at 50 mg/kg, po measured for 4 hrs by luminex analysis; assay type: functional, organism-based
[19] = biological target: Serine/threonine-protein kinase PAK 2 (Homo sapiens) (UniProt Q13177); assay: Inhibition of PAK2 (unknown origin) at 1 uM relative to control
[20] = biological target: G protein-coupled receptor kinase 5 (Homo sapiens) (UniProt P34947); assay: Inhibition of GRK5 (unknown origin) at 1 uM relative to control
[21] = biological target: Mast/stem cell growth factor receptor Kit (Homo sapiens, UniProt P10721); assay: Inhibition of cKIT (unknown origin)
Mus musculus [22] = assay: Antiarthritic activity against collagen-induced arthritis DBA/1J mouse model assessed as IL-1alpha level in serum at 50 mg/kg, po measured for 4 hrs by luminex analysis (reference value: 359 +/- 83.8 ng/ml); assay type: functional
[23] = biological target: Serine/threonine-protein kinase BRSK1 (Homo sapiens) (UniProt Q8TDC3); assay: Inhibition of BrSK1 (unknown origin) at 1 uM relative to control
[24] = biological target: Serine/threonine-protein kinase Nek6 (Homo sapiens) (UniProt Q9HC98); assay: Inhibition of NEK6 (unknown origin) at 1 uM relative to control
[25] = biological target: Serine/threonine-protein kinase 17A (Homo sapiens) (UniProt Q9UEE5); assay: Inhibition of DRAK1 (unknown origin) at 1 uM relative to control
[26] = biological target: Cyclin-dependent kinase 1/cyclin B1 (Homo sapiens) (UniProt P06493+P14635); assay: Inhibition of CDK1/cyclinB (unknown origin) at 1 uM relative to control; assay type: protein-complex assay
[27] = biological target: Receptor tyrosine-protein kinase erbB-4 (Homo sapiens) (UniProt Q15303); assay: Inhibition of ErbB4 (unknown origin) at 1 uM relative to control
[28] = biological target: Dual specificity tyrosine-phosphorylation-regulated kinase 2 (Homo sapiens) (UniProt Q92630); assay: Inhibition of DYRK2 (unknown origin) at 1 uM relative to control
[29] = biological target: LIM domain kinase 1 (Homo sapiens) (UniProt P53667); assay: Inhibition of LIMK1 (unknown origin) at 1 uM relative to control
[30] = Volume of distribution at steady state in CD-1 mouse at 1 mg/kg, iv measured upto 8 hrs by LC-MS analysis; assay type: ADME, organism-based; conditions: in vivo, read-out: Vdss
[31] = biological target: Homeodomain-interacting protein kinase 1 (Homo sapiens) (UniProt Q86Z02); assay: Inhibition of HIPK1 (unknown origin) at 1 uM relative to control
[32] = biological target: Serine/threonine-protein kinase STK11 (Homo sapiens) (UniProt Q15831); assay: Inhibition of LKB1 (unknown origin) at 1 uM relative to control
[33] = biological target: Tyrosine-protein kinase ABL1 (Homo sapiens, UniProt P00519); assay: Inhibition of ABL (unknown origin)
[34] = biological target: Serine/threonine-protein kinase ULK2 (Homo sapiens) (UniProt Q8IYT8); assay: Inhibition of ULK2 (unknown origin) at 1 uM relative to control
[35] = biological target: Platelet-derived growth factor receptor alpha (Homo sapiens) (UniProt P16234); assay: Inhibition of PDGFR2 (unknown origin) at 1 uM relative to control
RPMI-8226 = assay: Inhibition of human […] cell differentiation assessed as effect on IL-4 mRNA expression by RT-PCR analysis; assay type: functional, cell-based; conditions: dose 0.1-10 µM
[36] = biological target: Mitogen-activated protein kinase kinase kinase 9 (Homo sapiens) (UniProt P80192); assay: Inhibition of MLK1 (unknown origin) at 1 uM relative to control
[37] = biological target: Serine/threonine-protein kinase mTOR (Homo sapiens) (UniProt P42345); assay: Inhibition of mTOR (unknown origin) at 1 uM relative to control
Homo sapiens = organism: Homo sapiens; assay: Inhibition of PKB (unknown origin) at 1 uM relative to control
[38] = biological target: Protein kinase C delta type (Homo sapiens) (UniProt Q05655); assay: Inhibition of PKCd (unknown origin) at 1 uM relative to control

MAP kinase-interacting serine/threonine-protein kinase 2, sequence (Q9HBH9 whole entry): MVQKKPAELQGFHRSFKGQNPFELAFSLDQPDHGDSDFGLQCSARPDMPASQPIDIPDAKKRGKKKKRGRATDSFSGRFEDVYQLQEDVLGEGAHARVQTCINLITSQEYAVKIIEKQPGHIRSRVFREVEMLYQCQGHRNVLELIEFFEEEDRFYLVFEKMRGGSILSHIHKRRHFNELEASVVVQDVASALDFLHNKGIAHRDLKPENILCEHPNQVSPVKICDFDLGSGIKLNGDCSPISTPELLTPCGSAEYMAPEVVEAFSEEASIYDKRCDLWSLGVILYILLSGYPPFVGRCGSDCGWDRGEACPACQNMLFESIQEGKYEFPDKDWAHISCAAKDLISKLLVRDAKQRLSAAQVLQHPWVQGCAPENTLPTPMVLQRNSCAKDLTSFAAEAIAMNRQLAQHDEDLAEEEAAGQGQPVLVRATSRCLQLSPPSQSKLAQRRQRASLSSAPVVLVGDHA
Serine/threonine-protein kinase PAK 2 (Homo sapiens), sequence (Q13177 whole entry): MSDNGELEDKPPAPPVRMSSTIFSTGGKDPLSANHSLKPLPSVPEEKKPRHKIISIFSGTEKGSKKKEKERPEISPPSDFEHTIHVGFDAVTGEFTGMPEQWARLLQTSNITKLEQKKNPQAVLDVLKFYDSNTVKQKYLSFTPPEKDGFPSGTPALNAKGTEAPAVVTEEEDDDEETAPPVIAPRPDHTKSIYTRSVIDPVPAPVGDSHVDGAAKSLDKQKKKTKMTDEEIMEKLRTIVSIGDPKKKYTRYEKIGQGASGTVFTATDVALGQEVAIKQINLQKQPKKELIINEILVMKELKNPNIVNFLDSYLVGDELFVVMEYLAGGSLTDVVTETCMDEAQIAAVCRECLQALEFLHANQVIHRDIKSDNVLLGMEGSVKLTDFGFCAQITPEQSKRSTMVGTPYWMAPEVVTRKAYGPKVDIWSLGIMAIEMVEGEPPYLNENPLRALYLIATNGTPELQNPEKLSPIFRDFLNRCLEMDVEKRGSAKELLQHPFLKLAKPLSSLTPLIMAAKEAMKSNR
Serine/threonine-protein kinase BRSK1 (Homo sapiens), sequence (Q8TDC3 whole entry): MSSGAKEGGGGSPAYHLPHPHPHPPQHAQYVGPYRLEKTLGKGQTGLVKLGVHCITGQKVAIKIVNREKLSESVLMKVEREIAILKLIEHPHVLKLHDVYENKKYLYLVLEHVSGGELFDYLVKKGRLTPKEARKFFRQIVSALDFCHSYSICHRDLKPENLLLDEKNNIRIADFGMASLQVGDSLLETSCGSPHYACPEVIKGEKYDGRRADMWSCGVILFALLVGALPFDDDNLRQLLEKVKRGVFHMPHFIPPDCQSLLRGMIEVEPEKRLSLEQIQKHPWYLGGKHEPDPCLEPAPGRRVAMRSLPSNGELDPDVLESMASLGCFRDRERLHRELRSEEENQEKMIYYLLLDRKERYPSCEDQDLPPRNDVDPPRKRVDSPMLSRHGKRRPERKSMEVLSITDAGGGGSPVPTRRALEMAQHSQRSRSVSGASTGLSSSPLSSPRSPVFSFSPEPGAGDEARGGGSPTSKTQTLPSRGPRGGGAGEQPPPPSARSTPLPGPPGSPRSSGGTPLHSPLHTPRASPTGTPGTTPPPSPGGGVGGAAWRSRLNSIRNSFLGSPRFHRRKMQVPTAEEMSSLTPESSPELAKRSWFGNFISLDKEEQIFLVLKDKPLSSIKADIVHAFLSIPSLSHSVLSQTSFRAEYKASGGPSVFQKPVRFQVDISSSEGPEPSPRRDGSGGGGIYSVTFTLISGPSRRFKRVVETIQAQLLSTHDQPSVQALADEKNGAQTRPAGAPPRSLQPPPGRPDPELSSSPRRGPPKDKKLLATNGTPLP
LIM domain kinase 1 (Homo sapiens), sequence (P53667 whole entry, looked up, the tested form may be a part): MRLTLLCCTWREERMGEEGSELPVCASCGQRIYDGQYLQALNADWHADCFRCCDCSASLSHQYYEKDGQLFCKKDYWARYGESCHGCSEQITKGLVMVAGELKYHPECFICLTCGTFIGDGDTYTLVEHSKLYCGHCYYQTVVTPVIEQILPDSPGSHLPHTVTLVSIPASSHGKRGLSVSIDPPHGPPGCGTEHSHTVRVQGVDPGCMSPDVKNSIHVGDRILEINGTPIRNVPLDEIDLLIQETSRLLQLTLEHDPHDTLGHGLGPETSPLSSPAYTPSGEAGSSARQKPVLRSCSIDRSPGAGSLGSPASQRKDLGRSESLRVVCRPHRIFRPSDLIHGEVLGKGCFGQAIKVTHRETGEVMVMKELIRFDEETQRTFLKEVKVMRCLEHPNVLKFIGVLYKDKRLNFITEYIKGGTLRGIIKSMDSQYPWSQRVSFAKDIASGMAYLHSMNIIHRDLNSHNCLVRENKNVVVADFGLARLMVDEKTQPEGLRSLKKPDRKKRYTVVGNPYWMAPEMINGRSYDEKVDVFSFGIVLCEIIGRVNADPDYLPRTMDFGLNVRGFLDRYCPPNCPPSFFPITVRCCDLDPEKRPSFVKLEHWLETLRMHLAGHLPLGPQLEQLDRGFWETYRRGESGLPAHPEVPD
Interleukin-1 receptor-associated kinase 1 (Homo sapiens), sequence (P51617 whole entry, looked up): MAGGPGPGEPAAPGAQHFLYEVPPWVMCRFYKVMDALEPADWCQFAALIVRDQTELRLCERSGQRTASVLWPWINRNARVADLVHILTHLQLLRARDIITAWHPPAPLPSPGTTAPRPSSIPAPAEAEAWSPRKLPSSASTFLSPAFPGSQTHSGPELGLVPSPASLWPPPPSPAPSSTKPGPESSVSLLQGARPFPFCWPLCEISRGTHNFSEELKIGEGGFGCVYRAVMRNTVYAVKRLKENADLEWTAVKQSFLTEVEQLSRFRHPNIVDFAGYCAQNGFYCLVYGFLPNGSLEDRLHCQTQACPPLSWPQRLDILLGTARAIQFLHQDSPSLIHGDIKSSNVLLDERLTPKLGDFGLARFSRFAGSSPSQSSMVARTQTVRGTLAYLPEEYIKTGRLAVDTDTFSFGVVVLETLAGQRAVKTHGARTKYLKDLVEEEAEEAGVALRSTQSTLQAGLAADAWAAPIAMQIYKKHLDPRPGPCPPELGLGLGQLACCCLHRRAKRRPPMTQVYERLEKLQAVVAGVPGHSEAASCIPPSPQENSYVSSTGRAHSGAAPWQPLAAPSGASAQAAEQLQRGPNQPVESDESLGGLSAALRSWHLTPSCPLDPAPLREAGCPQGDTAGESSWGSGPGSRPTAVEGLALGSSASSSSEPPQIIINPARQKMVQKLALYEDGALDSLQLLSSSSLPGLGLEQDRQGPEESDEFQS
Ephrin type-B receptor 4 (Homo sapiens), sequence (P54760 whole entry): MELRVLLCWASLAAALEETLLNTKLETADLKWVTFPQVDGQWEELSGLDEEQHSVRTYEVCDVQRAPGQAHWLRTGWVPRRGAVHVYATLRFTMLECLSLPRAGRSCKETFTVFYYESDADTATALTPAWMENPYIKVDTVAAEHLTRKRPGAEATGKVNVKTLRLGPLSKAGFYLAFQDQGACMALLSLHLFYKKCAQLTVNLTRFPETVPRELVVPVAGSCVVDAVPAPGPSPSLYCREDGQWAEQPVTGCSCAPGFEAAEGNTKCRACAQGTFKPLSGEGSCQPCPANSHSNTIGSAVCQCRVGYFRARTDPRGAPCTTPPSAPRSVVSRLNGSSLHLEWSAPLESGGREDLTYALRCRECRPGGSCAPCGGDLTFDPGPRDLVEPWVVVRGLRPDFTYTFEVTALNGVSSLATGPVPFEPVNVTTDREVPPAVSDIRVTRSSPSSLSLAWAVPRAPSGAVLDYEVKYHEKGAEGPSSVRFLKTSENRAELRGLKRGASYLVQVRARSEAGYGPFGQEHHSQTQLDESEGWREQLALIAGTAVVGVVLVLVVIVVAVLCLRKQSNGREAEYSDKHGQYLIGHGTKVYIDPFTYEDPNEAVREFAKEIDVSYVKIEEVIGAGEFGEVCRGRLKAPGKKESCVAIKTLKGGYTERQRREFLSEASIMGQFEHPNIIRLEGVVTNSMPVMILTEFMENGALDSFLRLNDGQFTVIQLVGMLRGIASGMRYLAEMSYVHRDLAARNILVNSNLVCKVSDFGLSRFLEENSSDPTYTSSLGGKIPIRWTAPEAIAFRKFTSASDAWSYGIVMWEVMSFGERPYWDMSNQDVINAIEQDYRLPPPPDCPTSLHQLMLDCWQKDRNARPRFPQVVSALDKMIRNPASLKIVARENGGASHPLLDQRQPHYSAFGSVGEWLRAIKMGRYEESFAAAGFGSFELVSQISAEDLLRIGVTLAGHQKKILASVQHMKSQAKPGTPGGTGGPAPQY
Cyclin-dependent kinase 1/cyclin B1 (Homo sapiens), sequence (P06493 whole entry, looked up): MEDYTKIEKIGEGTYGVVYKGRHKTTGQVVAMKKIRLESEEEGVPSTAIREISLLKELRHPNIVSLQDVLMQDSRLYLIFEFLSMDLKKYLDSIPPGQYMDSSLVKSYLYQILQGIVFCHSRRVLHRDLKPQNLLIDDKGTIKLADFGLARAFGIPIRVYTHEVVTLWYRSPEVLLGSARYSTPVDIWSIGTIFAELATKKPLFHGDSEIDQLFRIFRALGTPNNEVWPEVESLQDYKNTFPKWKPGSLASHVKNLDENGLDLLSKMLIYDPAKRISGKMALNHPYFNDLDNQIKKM
Cyclin-dependent kinase 1/cyclin B1 (Homo sapiens), sequence (P14635 whole entry, looked up): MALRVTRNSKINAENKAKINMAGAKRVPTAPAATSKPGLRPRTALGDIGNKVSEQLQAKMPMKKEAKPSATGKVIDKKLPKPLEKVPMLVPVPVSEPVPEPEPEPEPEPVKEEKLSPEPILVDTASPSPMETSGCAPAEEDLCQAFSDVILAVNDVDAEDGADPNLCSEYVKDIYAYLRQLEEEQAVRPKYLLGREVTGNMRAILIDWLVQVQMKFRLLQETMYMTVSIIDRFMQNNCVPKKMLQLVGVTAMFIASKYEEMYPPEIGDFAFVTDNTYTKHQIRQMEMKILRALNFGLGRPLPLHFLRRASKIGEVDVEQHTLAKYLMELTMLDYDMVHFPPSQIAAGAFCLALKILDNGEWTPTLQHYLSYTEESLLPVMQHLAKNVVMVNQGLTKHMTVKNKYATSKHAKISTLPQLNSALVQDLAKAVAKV

inhibition [1]: 32%
inhibition [2]: 12%
inhibition [3]: 5%
inhibition [4]: 1%
inhibition [5]: 10%
inhibition [6]: 2%
inhibition [7]: 7%
IC50 [9]: > 10 µM
inhibition [10]: 5%
inhibition [11]: -8%
IC50 [13]: > 10 µM
inhibition [14]: -5%
inhibition [15]: 4%
Tmax [16]: 2.2 h
inhibition [17]: -4%
inhibition [19]: 3%
inhibition [20]: -10%
IC50 [21]: > 10 µM
inhibition [23]: -5%
inhibition [24]: -4%
inhibition [25]: 26%
inhibition [26]: 7%
inhibition [27]: -5%
inhibition [28]: -1%
inhibition [29]: -1%
Vd [30]: 6 L/kg
inhibition [31]: -8%
inhibition [32]: -5%
IC50 [33]: 2.3 µM
inhibition [34]: -8%
inhibition [35]: -10%
inhibition [36]: 1%
inhibition [37]: -7%
inhibition (Homo sapiens): -3%
inhibition [38]: -10%
Structure (SMILES): O=C(Nc1nc2cccc(-c3ccc(CN4CCS(=O)(=O)CC4)cc3)n2n1)C1CC1 [FILGOTINIB]
Activity (Mus musculus [8]): Active
inhibition [12]: 3%
Activity (Mus musculus [18]): Active
Activity (Mus musculus [22]): 123 ng/mL
inhibition (RPMI-8226): Dose-Dependent Effect
